Our source for the IC50 and EC50 values is patent US5646310A, “N-(2-cyanoethyl)-6-fluoroalkyl-2h-1-benzopyran derivatives” (Chugai Seiyaku Kabushiki Kaisha, priority 1993, dated 1997).

One assay relates to thoracic aorta. As to the kind of experiment: Extracted rat aorta, relaxation of KCl-induced constriction (Test Example 1). The format is cell-based, male Sprague Dawley rat. To be noted: relaxation of continuous constriction caused by 30 mM potassium chloride, rat aorta ring; read-out: 50% inhibitory concentration (IC50). As for the experimental part:
(§1) A thoracic aorta was extracted from male Sprague Dawley rat (450-600 g) to prepare a ring-formed sample having a width of 2 mm. The resulting sample was suspended at a tension of 2 g in an organ bath containing Krebs-Henseleit solution, and a gas composed of 95% oxygen and 5% carbon dioxide was passed therethrough. A constriction reaction of the sample was recorded isometrically by a FD pick-up. After equilibration for 1 to 1.5 hour, 30 mM potassium chloride was added in order to constrict the tissue, and an activity of the test compound for relaxing the continuous constriction caused by potassium chloride was evaluated by determining a 50% inhibitory concentration (IC50). As comparative compounds, N-(2-cyanoethyl)-2,2-dimethyl-6-nitro-2H-1-benzopyran-4-carbamide (Compound A) disclosed in WO 92/02514 and 6-trifluoromethyl--N-methyl-2,2-dimethyl-2H-1-benzopyran-4-carbothioamide (Compound B) disclosed in WO 92/14439 were used.
For the molecule `CC1(C)C=C(C(=O)NCCC#N)c2cc([N+](=O)[O-])ccc2O1` [Compound A, N-(2-cyanoethyl)-2,2-dimethyl-6-nitro-2H-1-benzopyran-4-carbamide, reference compound], the IC50 turned out to be 2.8 nM.
Still for that read-out and setting: the figure for `CNC(=S)C1=CC(C)(C)Oc2ccc(C(F)(F)F)cc21` [Compound B, 6-trifluoromethyl--N-methyl-2,2-dimethyl-2H-1-benzopyran-4-carbothioamide, reference compound] is 1.9 nM.
Still for that read-out and setting: the value for `CC1(C)C=C(C(=O)NCCC#N)c2cc(C(F)(F)C(F)(F)F)ccc2O1` [Compound 1, N-(2-cyanoethyl)-6-pentafluoroethyl-2,2-dimethyl-2H-1-benzopyran-4-carbamide] was 0.24 nM; that for `CC1(C)C=C(C(=S)NCCC#N)c2cc(C(F)(F)C(F)(F)F)ccc2O1` [Compound 2, N-(2-cyanoethyl)-6-pentafluoroethyl-2,2-dimethyl-2H-1-benzopyran-4-carbothioamide] was 0.88 nM.

For a further assay, the system named is thoracic aorta. Put plainly: Extracted rat aorta, relaxation of KCl-induced constriction relative to maximum relaxation (Test Example 2). The format is cell-based, male Sprague Dawley rat. The conditions noted are these: relaxation of continuous constriction caused by 30 mM potassium chloride, rat aorta ring, 2 ml organ bath; read-out: 50% inhibitory concentration (EC50) relative to the maximum relaxation effect of the compound. On the procedure:
as §1, with “in a 2 ml” for “in an”, “concentration (EC50) of the compound relative to the maximum relaxation effect of the compound.” for “concentration (IC50). As comparative compounds, N-(2-cyanoethyl)-2,2-dimethyl-6-nitro-2H-1-benzopyran-4-carbamide (Compound A) disclosed in WO 92/02514 and 6-trifluoromethyl--N-methyl-2,2-dimethyl-2H-1-benzopyran-4-carbothioamide (Compound B) disclosed in WO 92/14439 were used.”
In the case of `N#CCCNC(=S)C1=CC(CF)(CF)Oc2ccc(C(F)(F)C(F)(F)F)cc21` [Compound 4, N-(2-cyanoethyl)-6-pentafluoroethyl-2,2-bis-fluoromethyl-2H-1-benzopyran-4-carbothioamide], the EC50 worked out at 0.019 nM.
On to `CC1(C)Oc2ccc(C#N)cc2C(N2CCCC2=O)C1O` (stereo not shown) [Cromakalim, cromakalim, reference compound], for which the EC50 was 170 nM.
Same read-out and setting: the figure for `N#CCCNC(=S)C1=CC(CF)(CF)Oc2ccc(C(F)(F)F)cc21` [Compound 3, N-(2-cyanoethyl)-2,2-bisfluoromethyl-6-tri-fluoromethyl-2H-1-benzopyran-4-carbothioamide] is 0.021 nM.
